The test has as its target T1, recombinant human 5-HT5A receptor (Homo sapiens, UniProt P47898).
T1 construct: expressed in transfected cells; host or cells: Human Embryonic Kidney-EBNA (HEK-EBNA) cells, transient cDNA expression, membranes
In words: [3H]LSD radioligand binding assay, recombinant human 5-HT5A receptor in HEK-EBNA cell membranes. The settings on record: [3H]LSD approx. 1 nM; membranes from HEK-EBNA cells transiently expressing 5-HT5A; Ki from IC50 by Cheng-Prussoff equation. How it is done: A [^3H]LSD radioligand binding assay was used to determine the affinity of the compounds for the recombinant human 5-HT5A receptor, in membranes from transiently (cDNA) expressed 5-HT5A receptors in Human Embryonic Kidney-EBNA (HEK-EBNA) cells. Assay buffer consisted of Tris (50 mM) buffer containing 1 mM EGTA, 10 mM MgCl2 (pH 7.4) and 10 μM pargyline. The binding assay was carried out in 96-well-plates in the presence of [^3H]LSD (approximately 1 nM), approximately 2 μg/well of membrane protein, and 0.5 mg of Ysi-poly-1-lysine SPA beads in a final volume of 200 μl of buffer. Non-specific binding was defined using methiothepin 2 μM. Compounds were tested at 10 concentrations. All assays were conducted in duplicate and repeated at least two times. Assay plates were incubated for 120 min at room temperature before centrifugation. Bound ligand was determined using a Packard Topcount scintillation counter. IC50 values were calculated using a non-linear curve fitting program and Ki values calculated using the Cheng-Prussoff equation. The activity of representative compounds (≦0.05 μM) is described in the table below: […]

As a reminder, the Ki is the equilibrium dissociation constant of an inhibitor or competing ligand from its target.

T1 sequence (P47898 whole entry): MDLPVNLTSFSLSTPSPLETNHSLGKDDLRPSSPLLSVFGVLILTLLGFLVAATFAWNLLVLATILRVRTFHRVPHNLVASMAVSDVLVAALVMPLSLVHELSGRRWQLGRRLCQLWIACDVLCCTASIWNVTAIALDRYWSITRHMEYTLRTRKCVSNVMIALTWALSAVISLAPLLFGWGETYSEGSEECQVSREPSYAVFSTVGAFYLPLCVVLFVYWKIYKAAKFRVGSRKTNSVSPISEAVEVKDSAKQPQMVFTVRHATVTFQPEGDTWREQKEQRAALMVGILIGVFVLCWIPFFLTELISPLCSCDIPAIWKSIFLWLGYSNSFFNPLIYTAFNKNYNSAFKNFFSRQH

`COc1cccc2c1N=C(N)NC2C` (centres unmarked) [Example 1, 8-Methoxy-4-methyl-3,4-dihydro-quinazolin-2-ylamine]: the Ki is 6.34 nM.

As to `CC(C)Oc1cccc2c1N=C(N)NC2C` (centres unmarked) [Example 2, 8-Isopropoxy-4-methyl-3,4-dihydro-quinazolin-2-ylamine], the Ki stood at 9.96 nM.

Consider `CCOc1cccc2c1N=C(NCC(F)F)NC2C` (centres unmarked) [Example 3, (2,2-Difluoro-ethyl)-(8-ethoxy-4-methyl-3,4-dihydro-quinazolin-2-yl)-amine], for which the Ki turned out to be 14.1 nM.

For `CC(C)Oc1cccc2c1N=C(NCC(F)F)NC2C` (centres unmarked) [Example 4, (2,2-Difluoro-ethyl)-(8-isopropoxy-4-methyl-3,4-dihydro-quinazolin-2-yl)-amine], the Ki was found to be 23.2 nM.

As for `CNC1=Nc2c(OC(C)C)cccc2C(C)N1` (centres unmarked) [Example 5, (8-Isopropoxy-4-methyl-3,4-dihydro-quinazolin-2-yl)-methyl-amine], the inhibitory constant (Ki) was 25.4 nM.

Turning to `COc1cccc2c1N=C(NCC(F)F)NC2C` (centres unmarked) [Example 6, (2,2-Difluoro-ethyl)-(8-methoxy-4-methyl-3,4-dihydro-quinazolin-2-yl)-amine], the Ki was 28.2 nM.

`CCOc1cccc2c1N=C(NC)NC2C` (centres unmarked) [Example 7, (8-Ethoxy-4-methyl-3,4-dihydro-quinazolin-2-yl)-methyl-amine]: the Ki worked out at 34.5 nM.

Take `CCOc1cccc2c1N=C(N)NC2C` (centres unmarked) [Example 8, 8-Ethoxy-4-methyl-3,4-dihydro-quinazolin-2-ylamine]: the Ki was 37.2 nM.

Turning to `CNC1=Nc2c(OC)cccc2C(C)N1` (centres unmarked) [Example 9, (8-Methoxy-4-methyl-3,4-dihydro-quinazolin-2-yl)-methyl-amine], the Ki turned out to be 38.4 nM.

Take `CNC1=Nc2c(OC3CCCC3)cccc2C(C)N1` (centres unmarked) [Example 16, (8-Cyclopentyloxy-4-methyl-3,4-dihydro-quinazolin-2-yl)-methyl-amine]: the Ki came to 16.2 nM.

Turning to `CC1NC(NCC(F)F)=Nc2c(OC3CCCC3)cccc21` (centres unmarked) [Example 17, (8-Cyclopentyloxy-4-methyl-3,4-dihydro-quinazolin-2-yl)-(2,2-difluoro-ethyl)-amine], the Ki amounted to 22.4 nM.

For `COc1cc(Cl)c(C)c2c1N=C(N)NC2C` (centres unmarked) [Example 18, 6-Chloro-8-methoxy-4,5-dimethyl-3,4-dihydro-quinazolin-2-ylamine], the Ki amounted to 4.7 nM.

As for `COc1cc(Cl)c(C)c2c1N=C(NC1CCC1)NC2C` (centres unmarked) [Example 19, (6-Chloro-8-methoxy-4,5-dimethyl-3,4-dihydro-quinazolin-2-yl)-cyclobutyl-amine], the inhibition constant Ki came out at 47.5 nM.

Regarding `CNC1=Nc2c(OC)cc(Cl)c(C)c2C(C)N1` (centres unmarked) [Example 20, (6-Chloro-8-methoxy-4,5-dimethyl-3,4-dihydro-quinazolin-2-yl)-methyl-amine], the Ki is 42.6 nM.
